Assay results published in PubChem BioAssay AID2124 (Sanford-Burnham Center for Chemical Genomics, 2009).
Inconclusive results are not listed. The source made the active and inactive calls. The rule behind the calls is not given here; tested in MIN6 cells.

Test: GFP-wavelength compound autofluorescence in cells – imaging, high-content imaging, artefact control, dose response (AID 2124);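 note: cells exposed to compound for 48 hours before fixing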
Settings: cells, GFP-channel autofluorescence, high-content imaging, at 10 µM; for z-score: stronger effect = higher value

SMILES | z-score | cell count
Cc1cc(/C=C2\SC(=S)NC2=O)c(C)n1-c1ccc(O)cc1 | -0.36 (inactive) | 3000 cells
O=C(OCC(=O)N1CCN(C(=O)c2ccco2)CC1)c1ccccc1OCc1ccccc1 | -0.38 (inactive) | 2850 cells
COc1cc2c(cc1NC(=O)CN1CCN(S(=O)(=O)c3ccccc3F)CC1)oc1ccccc12 | -0.33 (inactive) | 3180 cells
CCn1c(SCC(=O)c2c[nH]c3ccccc23)nc2cc(S(=O)(=O)N3CCOCC3)ccc21 | -0.36 (inactive) | 3200 cells
C=CCN1C(=O)/C(=C/C=C2/N(CC)c3ccc(S(=O)(=O)N(C)C)cc3N2CC)SC1=S | 0.26 | 2740 cells
CCCNC(=O)Cn1c(=O)/c(=C\c2ccc(-c3ccc([N+](=O)[O-])cc3)o2)s/c1=C\C(=O)C(C)(C)C | 2.07 | 3100 cells
CCCCN(C)C1=CC2=CC(=C(C#N)C#N)CCC2CC1 (stereo unspecified) | 11.3 | 3120 cells
CCN(CC)CCN1C(=O)c2oc3ccccc3c(=O)c2C1c1ccccc1 (stereo unspecified) | -0.33 (inactive) | 3330 cells
O=C(/C=C/c1ccco1)NC(=S)Nc1ccccc1N1CCCC1 | -0.39 (inactive) | 2690 cells
Cc1cnc(NC(=O)CN2CCN(c3ccccn3)CC2)s1 | -0.39 (inactive) | 2360 cells
CC1CC(C)CN(C(=O)c2cccc3c2-c2ccccc2C3=O)C1 (stereo unspecified) | -0.38 (inactive) | 3240 cells
CC(Sc1ccccc1)C(=O)NN=C1CCCCCC1 (stereo unspecified) | -0.39 (inactive) | 2920 cells
Nc1cccc2c1C(=O)N(C(=O)c1cccc(S(=O)(=O)N3CCCC3)c1)C2=O | -0.39 (inactive) | 3320 cells
COCCN(CCOC)Cc1cc(=O)oc2cc3c(cc12)CCC3 | -0.38 (inactive) | 3160 cells
Cc1ccc(C)c(NC(=O)C(C)CC2COCCO2)c1 (stereo unspecified) | -0.38 (inactive) | 3230 cells
COCCNC(=O)c1onc(CSc2cccc(C)c2)c1C(=O)O | -0.39 (inactive) | 3170 cells
CC[n+]1c(/C=C/C=C/N(C(C)=O)c2ccccc2)sc2cc(OC)ccc21 | 7.8 | 111 cells
Cc1cc(Nc2nn(C)c(N)c2C#N)ccc1F | -0.33 (inactive) | 3300 cells
C=CCn1c(SCCOc2ccc(OC)cc2)nnc1C(C)NC(=O)Cc1ccc(OC)cc1 (stereo unspecified) | -0.33 (inactive) | 3140 cells
O=C(NN=C1CCN(Cc2ccccc2)CC1)c1cccc(S(=O)(=O)Nc2ccccc2Cl)c1 | -0.38 (inactive) | 3200 cells
CC(=O)c1c(COC(=O)c2ccncc2)nc2ccccc2[n+]1[O-] | -0.33 (inactive) | 2880 cells
O=C(CCN1C(=O)/C(=C/c2cccs2)SC1=S)NNC(=O)c1cccc(O)c1 | -0.33 (inactive) | 3190 cells
CN1CCN(Cc2nc(N)nc(Nc3ccc4c(c3)OCCO4)n2)CC1 | -0.39 (inactive) | 3330 cells
Cc1ccccc1NCC(=O)N/N=C/c1c[nH]c2ccccc12 | -0.33 (inactive) | 2720 cells
COC(=O)c1sc2ccccc2c1-n1cccc1C(=O)C(=O)Nc1ccc(F)cc1 | -0.38 (inactive) | 3000 cells
Cc1ccc(-n2c3c(c(=O)[nH]c2=O)C(C(F)(F)F)(C(F)(F)F)NC(=O)N3)cc1 | -0.33 (inactive) | 2850 cells

SMILES | z-score | cell count
Cc1cc(C)c(C#N)c(SCC2COc3ccccc3O2)n1 (stereo unspecified) | -0.33 (inactive) | 3670 cells
COC(=O)c1cc2c(-c3ccccc3)cc3ccccn3c-2c1C(=O)OC | -0.23 (inactive) | 2880 cells
Cc1cccc2sc(NNC(=O)c3ccc4c(c3)OCCO4)nc12 | -0.39 (inactive) | 3230 cells
COc1ccc(C2C=C(c3cccs3)Nc3nc(CCCO)nn32)cc1 (stereo unspecified) | -0.38 (inactive) | 2650 cells
CCN(CC)c1ccc2cc(-c3nc4ccccc4[nH]3)c(=O)oc2c1 | 5.37 | 1680 cells
COCCNC(=O)Cc1ccc(F)cc1 | -0.33 (inactive) | 2820 cells
N#Cc1c2c(c(-n3cnc4ccccc43)n3c1nc1ccccc13)CCC2 | -0.25 (inactive) | 3100 cells
CCN1C(=O)/C(=C/C=C2\N(CC)c3cc(S(=O)(=O)N(C)C)ccc3N2c2ccccc2)SC1=S | 0.11 | 2840 cells
O=C(NC1C=CS(=O)(=O)C1)c1sc2ccccc2c1Cl (stereo unspecified) | -0.38 (inactive) | 2120 cells
O=C(NCCc1csc(-c2ccccc2)n1)c1ccccc1F | -0.25 (inactive) | 3010 cells
CCN(CC)c1ccc(C=C(c2nnnn2-c2ccccc2)c2nnnn2-c2ccccc2)cc1 | -0.26 (inactive) | 2370 cells
COc1cc2cc(C)c3nnc(SCC(=O)Nc4cc(C)on4)n3c2cc1OC | -0.33 (inactive) | 2840 cells
CCN1/C(=C/c2cc[n+](CCCS(=O)(=O)[O-])c3ccccc23)Sc2ccccc21 | -0.24 (inactive) | 1390 cells
O=C1/C(=N\S(=O)(=O)c2cccs2)C([n+]2cccc(Cc3ccccc3)c2)=C([O-])c2ccccc21 | -0.31 (inactive) | 307 cells
O=C(CSc1nc2ccc(Cl)cc2o1)NCc1ccc2c(c1)OCO2 | -0.33 (inactive) | 3140 cells
Cc1ccc2[nH]c(-c3ccccc3)c(CN(C)C)c(=O)c2c1 | -0.33 (inactive) | 3240 cells
C=CCn1c(-c2oc3nc(-c4ccccc4)cc(-c4ccccc4)c3c2N)n[nH]c1=S | -0.33 (inactive) | 2820 cells
N#Cc1ccc(-c2ccccc2)nc1SCC(=O)c1cccc(Cl)c1 | -0.23 (inactive) | 3340 cells
O=C(NCc1ccc(F)cc1)C1CCCN(S(=O)(=O)c2cccnc2)C1 (stereo unspecified) | -0.33 (inactive) | 3070 cells
Cc1cc(C)c2nc(NNC(=O)c3cc(-c4cccs4)nc4ccccc34)sc2c1 | -0.33 (inactive) | 2740 cells
CC1CCCC(C2(O)C(=O)Nc3ccccc32)C1=O (stereo unspecified) | -0.33 (inactive) | 3180 cells
Cc1cc(/C=N/n2cnnc2)c(C)n1-c1cccc(C(=O)O)c1 | -0.33 (inactive) | 2960 cells
COc1cccc(N2CCN(c3ncccn3)CC2)c1 | -0.33 (inactive) | 3230 cells
Cn1c(=O)c(N)c2c3c(c(Br)ccc31)C(=O)c1ccccc1-2 | 0.12 | 3210 cells
Cc1ccc(/C=[N+](\[O-])c2ccc(N(C)C)cc2)c2nsnc12 | -0.38 (inactive) | 1880 cells
Cc1cc(N2C(=O)c3ccccc3C2=O)n(C)n1 | -0.39 (inactive) | 2960 cells

SMILES | z-score | cell count
Cc1cc(S(=O)(=O)NC2CCCCC2)c(C)s1 | -0.33 (inactive) | 3420 cells
CC(C)SC1=NC(C)(C)C=C(/C=C/c2ccc(Cl)cc2Cl)N1 | -0.36 (inactive) | 2940 cells
CN(C)C(=O)CN(c1ccc2c(c1)OCO2)S(C)(=O)=O | -0.33 (inactive) | 2880 cells
COC(=O)c1cnn2c(C(F)(F)F)cc(-c3ccc(F)cc3)nc12 | -0.33 (inactive) | 2980 cells
O=C(CSc1ncn[nH]1)NCc1ccccc1 | -0.39 (inactive) | 3380 cells
CCCn1c(SCC(=O)NC2CCCCC2)nnc1-c1ccncc1 | -0.25 (inactive) | 2960 cells
COc1ccc2cc3cc(C(=O)NCc4ccccn4)oc3nc2c1 | -0.38 (inactive) | 3310 cells
COc1ccc2nc(SCC(=O)Nc3c(C)cccc3C)[nH]c2c1 | -0.39 (inactive) | 3480 cells
COc1cc(N2CCCC2)c(OC)cc1/C=C(/C#N)c1cccc(Br)c1 | 0.19 | 3340 cells
C=CCC(c1ccccc1)N(C(C)=O)c1ccco1 (stereo unspecified) | -0.33 (inactive) | 3430 cells
COc1ccc(NC(=O)c2[nH]c(C)c(C(C)=O)c2C)cc1Cl | -0.33 (inactive) | 3410 cells
CC1=NNC(=O)C1CCC(=O)N/N=C/c1ccc(C)cc1 (stereo unspecified) | -0.39 (inactive) | 3320 cells
NS(=O)(=O)c1ccc(NC=C2C(=O)OC3(CCCCC3)OC2=O)cc1 | -0.25 (inactive) | 3080 cells
O=c1c2ccccc2c(C=Nc2ccccc2O)c(O)n1-c1nccs1 | -0.35 (inactive) | 2390 cells
CCCCCCN1C=CC(=C/C=C(\C#N)C(=O)OCC)C=C1 | 0.43 | 3270 cells
O=S(=O)([O-])CCC[n+]1c(/C=C\Nc2ccccc2)oc2ccc(-c3ccccc3)cc21 | 1.34 | 3120 cells
CN1CCN(c2ccc(/C=C3\C(=O)NC(=S)N(c4cccc(Br)c4)C3=O)o2)CC1 | -0.26 (inactive) | 3260 cells
CCOc1ccc(NC2=NCC(=O)N2Cc2cccs2)cc1 | -0.38 (inactive) | 3020 cells
O=C(COC(=O)c1cc(S(=O)(=O)N2CCOCC2)ccc1O)NCC1CCCO1 (stereo unspecified) | -0.33 (inactive) | 3080 cells
O=C(c1ccc2c(c1)OCO2)N1CCCC1 | -0.33 (inactive) | 2960 cells
CCOC(=O)CN1CC23C=CC(O2)C(C(=O)Nc2cc(OC)ccc2OC)C3C1=O (stereo unspecified) | -0.38 (inactive) | 3210 cells
CCCCN1C(=O)/C(=C/C=C2/CC(C)(C)CN2C)SC1=S | 0.43 | 2800 cells
CC(C)(C)C(=O)c1sc2nc(-c3cccs3)cc(C(F)(F)F)c2c1N | -0.22 (inactive) | 2740 cells
CCN(CC)c1ccc(C(=O)N/N=C/c2ccc(N3CCOCC3)cc2)cc1 | -0.37 (inactive) | 3040 cells
CC(C)N1CCc2c(sc(NC(=O)c3ccc(S(=O)(=O)N4CCc5ccccc54)cc3)c2C(N)=O)C1 | 0.77 | 1390 cells
COc1cccc(C(=O)Nc2ccccc2C(=O)N2CCCC2)c1 | -0.39 (inactive) | 3120 cells
